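Tested at 5 concentrations; 48 h exposure; 96-well plates; endpoints linearly interpolated, else capped at highest concentration. GI50 is the concentration that inhibits growth by half. TGI: concentration producing complete growth inhibition.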
Experiments:
Test in all cases: growth of human tumour cells (NCI), 48 h
SK-MEL-28 melanoma = tested on: SK-MEL-28 melanoma
HCT-15 colon = tested on: HCT-15 colon
HCC-2998 colon = tested on: HCC-2998 colon
K-562 leukemia = tested on: K-562 leukemia
LOX IMVI melanoma = tested on: LOX IMVI melanoma
SK-OV-3 ovarian = tested on: SK-OV-3 ovarian
CAKI-1 renal = tested on: CAKI-1 renal
TK-10 renal = tested on: TK-10 renal
HT29 colon = tested on: HT29 colon
PC-3 prostate = tested on: PC-3 prostate

Structure (SMILES) | TGI (SK-MEL-28 melanoma) [µM] | TGI (HCT-15 colon) [µM] | TGI (HCC-2998 colon) [µM] | TGI (K-562 leukemia) [µM] | TGI (LOX IMVI melanoma) [µM] | TGI (SK-OV-3 ovarian) [µM] | TGI (CAKI-1 renal) [µM] | TGI (TK-10 renal) [µM] | TGI (HT29 colon) [µM] | GI50 (SK-MEL-28 melanoma) [µM] | GI50 (HCT-15 colon) [µM] | GI50 (K-562 leukemia) [µM] | GI50 (LOX IMVI melanoma) [µM] | GI50 (SK-OV-3 ovarian) [µM] | GI50 (CAKI-1 renal) [µM] | GI50 (TK-10 renal) [µM] | GI50 (PC-3 prostate) [µM] | TGI (PC-3 prostate) [µM] | GI50 (HT29 colon) [µM] | GI50 (HCC-2998 colon) [µM]
CCCCCCCCCCNC(=S)OCCCC | 72.2 | 39.7 | 57 | 36.6 | 29.8 | 77.3 | 61.1 | 45 | 37.4 |  |  |  |  |  |  |  |  |  |  | 
O=C(CC(=O)c1cccc([N+](=O)[O-])c1)C(=O)Nc1nc([N+](=O)[O-])cs1 | > 100 | > 100 | > 100 | > 100 | > 100 | > 100 | > 100 | > 100 | > 100 |  |  |  |  |  |  |  |  |  |  | 
O=C1C(Cl)=C(Nc2cccc(O)c2)C(=O)N1c1ccc(Cl)cc1Cl | > 100 | > 100 |  | 58.1 | 48.3 | > 100 | 45 | > 100 | > 100 | 60.9 | 29.4 | 22 | 19.3 | 40.4 | 12.9 | > 100 | 13.9 | 38.2 | 35.1 | 
COc1ccc(C(=O)c2cc(OC)c(OC)c(OC)c2)cc1/C=C/C(=O)c1ccc2c(c1)OCO2 |  |  |  | > 100 |  | 41.1 | > 100 | 14.7 |  |  |  | 0.377 |  | 5.7 | 2.56 | 3.92 | 4.1 | > 100 |  | 
N#CC(C#N)=Cc1ccc(Oc2ccccc2)cc1 | 25.3 | > 100 | > 100 | > 80.4 | 30.8 | > 100 | > 100 | > 100 | 56.1 |  |  |  |  |  |  |  |  |  |  | 
C(=C\c1nc2ccccc2s1)/c1ccc(N2CCOCC2)s1 | > 100 | > 100 |  | > 100 | > 100 | > 100 | > 100 | > 100 | > 100 | > 100 | 17.1 | > 100 | 38.4 | 90.7 | > 100 | 48.4 | 33.7 | > 100 | 20.8 | 
COc1cccc(N2C(=O)[C@H]3[C@H]4CC(C(C)(C)C)CC[C@H]4c4c([nH]c5ccccc45)[C@H]3C2=O)c1 (stereo not given in full) | 35.6 | > 100 | > 100 | 29 | 32.7 | 35.3 | 32.3 | 28.8 | 92.1 |  |  |  |  |  |  |  |  |  |  | 
COc1ccc(OC)c(-c2cc(C(=O)O)c3cc4ccccc4cc3n2)c1 | > 100 | > 100 |  | > 100 | > 100 | > 100 | > 100 | > 100 | > 100 |  |  |  |  |  |  |  |  | > 100 |  | 
CNC(=O)OCc1cc2ccncc2c2c1[nH]c1ccccc12 | > 100 | > 100 | > 100 | > 100 | > 100 |  | > 100 | > 100 | > 100 |  |  |  |  |  |  |  |  |  |  | 
CCC[CH2][Ge]([CH2]CCC)([CH2]CCC)[O]C(=O)C(OC(C)=O)c1ccccc1 (stereo not given) | 22.1 | 14.5 | 5.63 | > 34 | 9.14 | 55.5 | 47.4 | 54.3 | 13.8 | 8.12 | 1.73 | 0.202 | 0.535 | 12.4 | 13.7 | 8.06 |  |  | 0.742 | 0.53
COc1ccc2cc(C(=O)/C=C/c3ccco3)ccc2c1 | > 100 | > 100 |  | > 100 | > 100 | > 100 | > 100 | 70 | > 100 | > 100 | 25.6 | 38 | 54 | 53.1 | 38.7 | 25.6 | 47.4 | > 100 | 42.5 | 
N#Cc1nc(Nc2ccc(Cl)cc2)sc1N | > 70.8 | > 94.6 | 14.8 | 48.6 | 13.7 | > 100 | 45.1 | > 76.6 | > 51.9 |  |  |  |  |  |  |  |  |  |  | 
CO[C@]12CCC(=O)N1C=Cc1c2[nH]c2ccccc12 | > 100 | > 100 | > 100 | > 100 | > 100 |  | > 100 | > 100 | > 100 |  |  |  |  |  |  |  |  |  |  | 
COc1ccc2c([nH]c3cc(O)c(C)cc32)c1CC=C(C)C | > 25 | > 25 | 14.5 | 24 | 7.8 | > 25 |  |  | > 25 |  | 5.14 | 5.78 | 4.36 |  |  |  |  |  |  | 5.49
N=C(N)c1ccc(-c2ccc(-c3ccc(Cl)c(Cl)c3)o2)nc1 | 3.34 | 3.53 |  |  |  | 3.23 | 2.85 | 3.77 |  | 1.76 | 1.77 |  |  | 1.53 | 1.47 | 2.03 | 1.72 | 3.29 |  | 
CCOC1=C2C(C)(CCC3[C@@]4(C)C=CC(=O)C(C)(C)C4CC(O)[C@@]23C)C(c2ccoc2)C1=O (stereo not given in full) | 30.5 | 27.5 | 31.1 | 50.2 | 29.1 | 76.8 | > 100 | 61.3 | 29.2 |  |  |  |  |  |  |  |  |  |  | 
COc1cc(CCNc2nc3cc(N)cc(N)c3nc2-c2ccccc2)cc(OC)c1 | 3.31 | 7.42 |  | 4.25 | 3.17 | 13 | 3.6 | 12.1 | 4.87 | 1.63 | 2.43 | 1.73 | 1.65 | 3.56 | 1.93 | 3.49 |  |  | 1.93 | 
C/C=C/C=C\C(=O)C1c2cccc(O)c2C(=O)c2c(O)cc(C)cc21 (stereo not given) | 3.51 | 3.6 | 1.6 | > 100 | 3.38 | 3.08 | 4.34 | 3.76 | 4.21 |  |  |  |  |  |  |  |  |  |  | 
CN1CCc2cc(O)c3cc2C1Cc1ccc(cc1)Oc1cc(ccc1O)CC1c2c(cc4c(c2O3)OCO4)CCN1C (stereo not given) | 46.4 | 60 | 41.7 | 39.4 |  |  |  | 92.2 | 74.4 |  |  |  |  |  |  |  |  |  |  | 
